Measured values reported in patent US20220071952A1, “METHODS OF TREATING AND PREVENTING HEPATOTOXICITY” (Natreon, Inc., priority 2020, published 2022).
Values joined by “and” are separate entries in the source; they are usually repeats but may differ in a detail not shown here. Identical values can stand only once.

How the values were obtained:
[1] = system: CCl4-induced hepatotoxicity in mice; assay: Carbon tetrachloride (CCl4)-induced hepatotoxicity in mice, serum biochemical parameters (Example II); type: in vivo, Swiss albino mice; details: for ALT / AST / MDA / Total Bilirubin / Total Protein: 10 mg/kg p.o. 7 days + CCl4 (30%) 1 ml/kg i.p., serum, mean ± SD, n=6
Experimental: (§1) Swiss albino mice of both sexes, weighing approximately 25-30 g, were obtained from National Research Institute of Ayurveda for Drug Development (Govt. of India), Kolkata, and were housed in polypropylene cages at 22±3° C., relative air humidity of 45 to 55%, with 12.00 hr light and dark cycle (lighting on from 6:00 AM to 6:00 PM) and were provided standard pellet chow (carbohydrate 65.5%, protein 17.6%, fat 6.6%) and distilled water ad libitum. The mice were acclimatized for one week in the laboratory conditions before being used in the experiment. All experiments were conducted between 10.00 hr and 14.00 hr. Principles of laboratory animals care (NIH publication no. 85-23, revised 1985) were followed.

[2] = system: paracetamol-induced hepatotoxicity in mice; assay: Paracetamol-induced hepatotoxicity in mice, serum biochemical parameters (Example I); type: in vivo, Swiss albino mice; details: for ALP / ALT / AST / Total Bilirubin / Total Protein / Triglyceride: 10 mg/kg p.o. + paracetamol 200 mg/kg p.o., 7 days, serum, mean ± SD, n=6
Excerpt: 3-OH-DBP (Natreon, Inc., New Brunswick, N.J., synthesized to 99% purity w/w) was in the form of a white free flowing powder. 3,8-(OH)2-DBP (Natreon, Inc., New Brunswick, N.J., synthesized to 99% purity w/w) was in the form of a pale green free flowing powder. Paracetamol (acetaminophen) was in the form of a white solid tablet.
as §1, with “to 6:00 PM). Mice were provided” for “to 6:00 PM) and were provided”, “in the above laboratory conditions,” for “in the laboratory conditions”, “above laboratory conditions, before being” for “the laboratory conditions before being”, “used in this experiment. All” for “used in the experiment. All”, “of laboratory animal care (NIH” for “of laboratory animals care (NIH”
The animals were randomly assigned into four groups of six animals each, as set out in Table 1. […] After 1 hr of last treatment, blood samples were collected and serum was separated.

[3] = system: CCl4-induced hepatotoxicity in mice; assay: Synergistic hepatoprotective activity of DBPs against CCl4-induced hepatotoxicity (Example IV); details: for ACP / ALP / ALT / AST / Total Protein: CCl4 1 ml/kg, mean ± SEM, n=4
[4] = female mice, doses 3-OH-DBP 2, 3,8-(OH)2-DBP 10, 1:5 combination 12 mg/kg b.w.
[5] = female mice, doses 3-OH-DBP 10, 3,8-(OH)2-DBP 50, 1:5 combination 60 mg/kg b.w.
[6] = male mice, doses 3-OH-DBP 2, 3,8-(OH)2-DBP 10, 1:5 combination 12 mg/kg b.w.
[7] = male mice, doses 3-OH-DBP 10, 3,8-(OH)2-DBP 50, 1:5 combination 60 mg/kg b.w.

## O=c1oc2cc(O)ccc2c2ccccc12 [3-OH-DBP, 3-hydroxy-dibenzo-alpha-pyrone]
[1]; 10 mg/kg p.o., mice
  effect on CCl4-induced hepatotoxicity (ALT, AST, bilirubin, total protein vs CCl4 group): significantly attenuated and reversed the CCl4-induced hepatotoxicity
  effect on CCl4-induced lipid peroxidation (MDA): significantly lowered CCl4-induced lipid peroxidation
[1]; female mice
  ALT: 67.34 ± 12.07 IU/L
  AST: 17.48 ± 5.67 IU/L
  MDA: 8.13 ± 0.167 nmol/mL
  Total Bilirubin: 0.53 ± 0.21 mg/dL
  Total Protein: 3.92 ± 0.88 g/dL
[1]; male mice
  ALT: 58.21 ± 6.79 IU/L
  AST: 12.33 ± 3.29 IU/L
  Total Bilirubin: 0.50 ± 0.23 mg/dL
  Total Protein: 0.00355 ± 0.00031 g/dL
[1]; male mice, 10 mg/kg
  MDA: 7.04 nmol/mL and 7.04 ± 0.09 nmol/mL
[1]; males and females, 10 mg/kg p.o.
  hepatoprotective activity against carbon tetrachloride-induced liver damage: significant hepatoprotective activity
[2]; 10 mg/kg body weight, male (Table 2) and female (Table 3) mice
  effect on paracetamol-induced hepatotoxicity (ALT, AST, triglyceride, bilirubin vs paracetamol group): significantly attenuated and reversed the paracetamol-induced hepatotoxicity
[2]; female mice, 10 mg/kg orally for 7 days, paracetamol 200 mg/kg
  hepatoprotective activity against paracetamol, comparison of both test compounds: almost the same hepatoprotective activity
[2]; female mice
  ALP: 82.04 ± 8.96 IU/L
  ALT: 62.32 ± 15.97 IU/L
  AST: 62.28 ± 12.46 IU/L
  Total Bilirubin: 0.46 ± 0.26 mg/dL
  Total Protein: 6.6 ± 0.44 g/dL
  Triglyceride: 61.05 ± 1.73 mg/dL
[2]; male mice, 10 mg/kg orally once daily for 7 days, paracetamol 200 mg/kg
  hepatoprotective activity against paracetamol-induced liver damage, in comparison with 3,8-(OH)2-DBP: better hepatoprotective activity
[2]; male mice
  ALP: 80.00 ± 5.64 IU/L
  ALT: 65.42 ± 23.50 IU/L
  AST: 52.23 ± 3.73 IU/L
  Total Bilirubin: 0.50 ± 0.23 mg/dL
  Total Protein: 6.27 ± 0.14 g/dL
  Triglyceride: 97.65 ± 1.96 mg/dL
[3]; CCl4-induced hepatotoxicity, male and female mice
  hepatoprotective activity (conclusion, Tables 19 and 20): hepatoprotective activity in a dose dependent manner
[3]; [4]
  ACP: 48 ± 5.6 (b) U/L
  ALP: 75 ± 13 (b) IU/L
  ALT: 81 ± 7 (b) IU/L
  AST: 90 ± 4.2 (b) IU/L
  Total Protein: 4.7 ± 0.59 g/dL
  ACP, difference in values from CCl4 treated mice: A = (a-b = 32) U/L
  ALP, difference in values from CCl4 treated mice: A = (a-b = 15) IU/L
  ALT, difference in values from CCl4 treated mice: A = (a-b = 6) IU/L
  AST, difference in values from CCl4 treated mice: A = (a-b = 15) IU/L
[3]; [5]
  ACP: 55 ± 4.1 (e) U/L
  ALP: 78 ± 6.9 (e) IU/L
  ALT: 75 ± 7.6*(e) IU/L
  AST: 69 ± 4.9 (e) IU/L
  Total Protein: 7.2 ± 0.23 g/dL
  ACP, difference in values from CCl4 treated mice: D = (a-e = 26) U/L
  ALP, difference in values from CCl4 treated mice: D = (a-e = 12) IU/L
  ALT, difference in values from CCl4 treated mice: D = (a-e = 12) IU/L
  AST, difference in values from CCl4 treated mice: D = (a-e = 36) IU/L
[3]; [6]
  ACP: 49 ± 3.6***,#( b) U/L
  ALP: 79 ± 12#(b) IU/L
  ALT: 72 ± 3.4**(b) IU/L
  AST: 70 ± 4##(b) IU/L
  Total Protein: 5.6 ± 0.37 g/dL
  ACP, difference in values from CCl4 treated mice: A = (a-b = 37) U/L
  ALP, difference in values from CCl4 treated mice: A = (a-b = 63) IU/L
  ALT, difference in values from CCl4 treated mice: A = (a-b = 8) IU/L
  AST, difference in values from CCl4 treated mice: A = (a-b = 33) IU/L
[3]; [7]
  ACP: 47 ± 2.6 (e) U/L
  ALP: 78 ± 6.9#(e) IU/L
  ALT: 67 ± 3.6 (e) IU/L
  AST: 69 ± 2.7 (e) IU/L
  Total Protein: 6.3 ± 0.46 g/dL
  ACP, difference in values from CCl4 treated mice: D = (a-e = 39) U/L
  ALP, difference in values from CCl4 treated mice: D = (a-e = 64) IU/L
  ALT, difference in values from CCl4 treated mice: D = (a-e = 13) IU/L
  AST, difference in values from CCl4 treated mice: D = (a-e = 34) IU/L
